Assay results taken from US12539292B2, “BRM targeting compounds and associated methods of use” (Arvinas Operations, Inc., priority 2018, dated 2026).
Like-named read-outs stand apart in the source and are kept apart here. One block for each compound: values may come before it.

Target: T1, BRM (Homo sapiens, UniProt P51531)
T1 construct: In-Cell Western Screen of BRM Degradation in SW1573 Cells; endogenous in cells; host or cells: SW1573
Test: In-cell Western screen of BRM degradation in SW1573 cells (Dmax and DC50)
Assay type: cell-based
Protocol: In-Cell Western Screen of BRM Degradation in SW1573 Cells
To assess BRM degradation (Dmax and DC50), cells were seeded at 8000/well in 96-well black/clear-bottom plates in 180 μL DMEM growth media (containing 1% pen-strep, 1% HEPES and 10% FBS) per well. Plates were incubated overnight to allow adhesion. The next morning cells were treated by adding 20 μL of 10× compound (1% DMSO) to appropriate wells and returned to incubator for overnight (18-20 hours). The final DMSO concentration was 0.1%.
For processing, the plates were removed from incubator, the media was removed, and immediately 200 μL of cold (4° C.) DPBS was added to all wells. DPBS was then removed, and 50 μL of 4% paraformaldehyde (PFA) in DPBS (4° C.) was added to all wells, and the plates were incubated at room temperature for 20 minutes. PFA was then removed, and 200 μL of TBS-T containing 0.5% Triton X-100 was added to all wells, and the plates were incubated at room temperature for 30 minutes. TBS-T containing 0.5% Triton X-100 was then removed, and 50 μL of Li-Cor blocking solution was added, and the plates were incubated at room temperature for a minimum of one hour.
The next day plates were washed three times with TBS-T, 200 μL per well. Fifty (50) μL of secondary antibody cocktail in LI-COR blocking solution (anti-rabbit_800 nm and anti-mouse_680 nm) was added to all wells (diluted 1:5000). The plates were incubated at room temperature for at least one hour while protected from light. The plates were washed twice with TBS-T, 200 μL per well.
To read each plate TBS-T was removed, and each plate was inverted tapped on a paper towel. The plates were read on the LI-COR Odyssey with default intensity settings of 5.0 for both channels. LI-COR images were analyzed with the in-cell Western feature of Image Studio Lite.

[1] = BRM degradation, SW1573 cells, read-out: DC50
[2] = BRM degradation, SW1573 cells, when tested at the top concentration of between 0.3 and 10 μM, read-out: Dmax (%) (% degraded)
[3] = degradation of BRM, read-out: BRM DC50
[4] = BRM degradation, SW1573 cells, Table 2D, read-out: *DC50
[5] = SW1573, % degraded, when tested at the top concentration of between 0.3 and 10 μM, read-out: BRM Dmax (%)

T1 sequence (P51531 whole entry): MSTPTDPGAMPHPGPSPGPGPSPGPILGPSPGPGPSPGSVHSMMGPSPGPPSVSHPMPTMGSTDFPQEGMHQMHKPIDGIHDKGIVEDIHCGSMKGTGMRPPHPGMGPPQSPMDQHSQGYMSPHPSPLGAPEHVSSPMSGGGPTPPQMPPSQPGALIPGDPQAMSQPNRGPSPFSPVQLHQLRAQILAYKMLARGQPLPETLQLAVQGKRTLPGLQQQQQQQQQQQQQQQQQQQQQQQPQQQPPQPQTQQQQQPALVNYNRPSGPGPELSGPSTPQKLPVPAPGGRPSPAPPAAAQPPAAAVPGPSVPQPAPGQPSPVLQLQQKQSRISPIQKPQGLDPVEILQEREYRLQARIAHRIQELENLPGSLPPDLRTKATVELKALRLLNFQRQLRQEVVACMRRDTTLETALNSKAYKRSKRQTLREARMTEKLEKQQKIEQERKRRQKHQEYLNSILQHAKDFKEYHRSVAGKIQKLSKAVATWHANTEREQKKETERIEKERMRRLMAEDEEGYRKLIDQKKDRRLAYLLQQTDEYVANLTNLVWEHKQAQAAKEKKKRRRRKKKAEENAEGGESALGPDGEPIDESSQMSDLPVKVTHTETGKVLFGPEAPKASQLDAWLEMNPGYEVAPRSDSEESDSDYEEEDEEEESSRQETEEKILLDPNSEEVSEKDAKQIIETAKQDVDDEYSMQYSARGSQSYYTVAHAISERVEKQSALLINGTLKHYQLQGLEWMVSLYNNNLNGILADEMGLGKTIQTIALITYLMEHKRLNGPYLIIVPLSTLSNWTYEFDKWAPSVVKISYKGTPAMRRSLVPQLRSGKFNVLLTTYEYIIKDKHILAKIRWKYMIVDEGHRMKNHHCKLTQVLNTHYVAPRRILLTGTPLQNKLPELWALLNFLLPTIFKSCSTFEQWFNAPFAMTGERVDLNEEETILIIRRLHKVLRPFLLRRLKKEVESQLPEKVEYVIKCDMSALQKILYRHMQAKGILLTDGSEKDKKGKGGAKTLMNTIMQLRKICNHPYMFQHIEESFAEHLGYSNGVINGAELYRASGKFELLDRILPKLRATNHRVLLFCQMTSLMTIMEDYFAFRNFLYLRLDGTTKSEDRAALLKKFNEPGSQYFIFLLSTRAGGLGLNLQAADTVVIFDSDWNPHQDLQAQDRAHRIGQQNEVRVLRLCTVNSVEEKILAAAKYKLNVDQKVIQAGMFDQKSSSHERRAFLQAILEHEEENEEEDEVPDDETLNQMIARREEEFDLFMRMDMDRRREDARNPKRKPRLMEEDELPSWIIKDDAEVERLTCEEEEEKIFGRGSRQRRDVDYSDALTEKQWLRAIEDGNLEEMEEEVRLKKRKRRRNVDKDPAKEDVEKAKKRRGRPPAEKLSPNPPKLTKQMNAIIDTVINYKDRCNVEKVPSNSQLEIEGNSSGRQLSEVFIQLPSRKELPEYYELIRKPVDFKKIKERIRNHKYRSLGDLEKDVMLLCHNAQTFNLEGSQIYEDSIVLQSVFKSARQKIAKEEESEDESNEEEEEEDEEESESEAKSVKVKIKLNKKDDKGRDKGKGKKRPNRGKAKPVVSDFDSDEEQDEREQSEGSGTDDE

DC50 [1]: < 2.5 nM
Dmax [2]: > 75%
Compound: Cc1ncsc1-c1ccc([C@H](C)NC(=O)[C@@H]2C[C@@H](O)CN2C(=O)[C@@H](c2cc(OCCN3CCN(CCCCN4CCOC5(CCN(c6cc(-c7ccccc7O)nnc6N)CC5)C4)CC3)no2)C(C)C)cc1 [compound 91, (2S,4R)-1-((R)-2-(3-(2-(4-(4-(9-(3-amino-6-(2-hydroxyphenyl)pyridazin-4-yl)-1-oxa-4,9-diazaspiro[5.5]undecan-4-yl)butyl)piperazin-1-yl)ethoxy)isoxazol-5-yl)-3-methylbutanoyl)-4-hydroxy-N-((S)-1-(4-(4-methylthiazol-5-yl)phenyl)ethyl)pyrrolidine-2-carboxamide]

Compound: Cc1ncsc1-c1cnc([C@H](C)NC(=O)[C@@H]2C[C@@H](O)CN2C(=O)[C@H](c2cc(OCCN3CCC(O[C@H]4C[C@H](Oc5cc(N6C7CCC6CN(c6cc(-c8ccccc8O)nnc6N)C7)ccn5)C4)CC3)no2)C(C)C)cn1 [compound 490, (2S,4R)-1-((2S)-2-(3-(2-(4-((1r,3S)-3-((4-(3-(3-amino-6-(2-hydroxyphenyl)pyridazin-4-yl)-3,8-diazabicyclo[3.2.1]octan-8-yl)pyridin-2-yl)oxy)cyclobutoxy)piperidin-1-yl)ethoxy)isoxazol-5-yl)-3-methylbutanoyl)-4-hydroxy-N-((S)-1-(5-(4-methylthiazol-5-yl)pyrazin-2-yl)ethyl)pyrrolidine-2-carboxamide]
DC50 (target protein degradation, read-out: BRM DC50): > 30 nM

Compound: Cc1cc([C@H](C(=O)N2C[C@H](O)C[C@H]2C(=O)N[C@@H](C)c2ccc(-c3scnc3C)cc2)[C@H](C)COCCCCN2C3CCC2CN(c2cc(-c4ccccc4O)nnc2N)C3)on1 [compound 425, (2S,4R)-1-((2R,3S)-4-(4-(3-(3-amino-6-(2-hydroxyphenyl)pyridazin-4-yl)-3,8-diazabicyclo[3.2.1]octan-8-yl)butoxy)-3-methyl-2-(3-methylisoxazol-5-yl)butanoyl)-4-hydroxy-N-((S)-1-(4-(4-methylthiazol-5-yl)phenyl)ethyl)pyrrolidine-2-carboxamide]
DC50 [3]: > 30 nM

Compound: CC(C)[C@@H](C(=O)N1C[C@H](O)C[C@H]1C(=O)N[C@@H](C)c1ccc(-c2scnc2CO)cc1)c1cc(OCCN2CCC(O[C@H]3C[C@H](Oc4cc(N5C6CCC5CN(c5cc(-c7ccccc7O)nnc5N)C6)ccn4)C3)CC2)no1 [compound 211, (2S,4R)-1-((2R)-2-(3-(2-(4-((1r,3R)-3-((4-(3-(3-amino-6-(2-hydroxyphenyl)pyridazin-4-yl)-3,8-diazabicyclo[3.2.1]octan-8-yl)pyridin-2-yl)oxy)cyclobutoxy)piperidin-1-yl)ethoxy)isoxazol-5-yl)-3-methylbutanoyl)-4-hydroxy-N-((S)-1-(4-(4-(hydroxymethyl)thiazol-5-yl)phenyl)ethyl)pyrrolidine-2-carboxamide]
DC50 [1]: < 2.5 nM
Dmax (BRM degradation, SW1573 cells, tested at the top concentration of between 0.3 and 10 μM, read-out: Dmax (%) (% degraded)): > 75%

Compound: Cc1ncsc1-c1ccc([C@H](C)NC(=O)[C@@H]2C[C@@H](O)CN2C(=O)[C@@H](c2cc(N3CCC(CN4CCC(Oc5cc(N6C7CCC6CN(c6cc(-c8ccccc8O)nnc6N)C7)ccn5)CC4)CC3)no2)C(C)C)cc1 [compound 602, (2S,4R)-1-((2R)-2-(3-(4-((4-((4-(3-(3-amino-6-(2-hydroxyphenyl)pyridazin-4-yl)-3,8-diazabicyclo[3.2.1]octan-8-yl)pyridin-2-yl)oxy)piperidin-1-yl)methyl)piperidin-1-yl)isoxazol-5-yl)-3-methylbutanoyl)-4-hydroxy-N-((S)-1-(4-(4-methylthiazol-5-yl)phenyl)ethyl)pyrrolidine-2-carboxamide]
Dmax (BRM degradation, SW1573 cells, Table 2D, read-out: **Dmax (%) (% degraded)): > 75%
DC50 [4]: < 2.5 nM

Compound: CC(C)[C@@H](C(=O)N1C[C@H](O)C[C@H]1C(=O)NCc1ccc(C2(F)CC2)cc1)c1cc(OCCN2CCC(O[C@H]3C[C@H](Oc4cc(N5C6CCC5CN(c5cc(-c7ccccc7O)nnc5N)C6)ccn4)C3)CC2)no1 [compound 419, (2S,4R)-1-((2R)-2-(3-(2-(4-((1r,3R)-3-((4-(3-(3-amino-6-(2-hydroxyphenyl)pyridazin-4-yl)-3,8-diazabicyclo[3.2.1]octan-8-yl)pyridin-2-yl)oxy)cyclobutoxy)piperidin-1-yl)ethoxy)isoxazol-5-yl)-3-methylbutanoyl)-N-(4-(1-fluorocyclopropyl)benzyl)-4-hydroxypyrrolidine-2-carboxamide]
Dmax [5]: > 75%
DC50 [3]: 2.5 to 10 nM

Compound: Cc1ncsc1-c1ccc(CNC(=O)[C@@H]2C[C@@H](O)CN2C(=O)[C@@H](NC(=O)COCCOCCOCCOCCCc2cc(N3C4CCC3CN(c3cc(-c5ccccc5O)nnc3N)C4)ccn2)C(C)(C)C)cc1 [compound 53, (2S,4R)-1-((S)-18-(4-(3-(3-amino-6-(2-hydroxyphenyl)pyridazin-4-yl)-3,8-diaza-bicyclo[3.2.1]octan-8-yl)pyridin-2-yl)-2-tert-butyl-4-oxo-6,9,12,15-tetraoxa-3-azaoctadecan-1-oyl)-4-hydroxy-N-(4-(4-methylthiazol-5-yl)benzyl)pyrrolidine-2-carboxamide]
DC50 [1]: 2.5 to 10 nM
Dmax [2]: > 75%

Compound: Cc1nccn1-c1ccc([C@H](C)NC(=O)[C@@H]2C[C@@H](O)CN2C(=O)[C@@H](c2cc(N3CCN(CC4CCN(C[C@H]5C[C@H](Oc6cc(N7C8CCC7CN(c7cc(-c9ccccc9O)nnc7N)C8)ccn6)C5)CC4)CC3)no2)C(C)C)cc1 [compound 437, (2S,4R)-1-((2R)-2-(3-(4-((1-(((1r,3r)-3-((4-(3-(3-amino-6-(2-hydroxyphenyl)pyridazin-4-yl)-3,8-diazabicyclo[3.2.1]octan-8-yl)pyridin-2-yl)oxy)cyclobutyl)methyl)piperidin-4-yl)methyl)piperazin-1-yl)isoxazol-5-yl)-3-methylbutanoyl)-4-hydroxy-N-((S)-1-(4-(2-methyl-1H-imidazol-1-yl)phenyl)ethyl)pyrrolidine-2-carboxamide]
Dmax [5]: > 75%
DC50 [3]: < 2.5 nM

Compound: CNC(=O)CCC[C@H](NC(=O)[C@@H]1C[C@@H](O)CN1C(=O)[C@H](c1cc(OCCN2CCC(O[C@H]3C[C@H](Oc4cc(N5C6CCC5CN(c5cc(-c7ccccc7O)nnc5N)C6)ccn4)C3)CC2)no1)C(C)C)c1ccc(-c2scnc2C)cc1 [compound 569, (2S,4R)-1-((2S)-2-(3-(2-(4-((1r,3S)-3-((4-(3-(3-amino-6-(2-hydroxyphenyl)pyridazin-4-yl)-3,8-diazabicyclo[3.2.1]octan-8-yl)pyridin-2-yl)oxy)cyclobutoxy)piperidin-1-yl)ethoxy)isoxazol-5-yl)-3-methylbutanoyl)-4-hydroxy-N-((S)-5-(methylamino)-1-(4-(4-methylthiazol-5-yl)phenyl)-5-oxopentyl)pyrrolidine-2-carboxamide]
DC50 [4]: > 30 nM

Compound: Cc1ncsc1-c1ccc([C@H](C)NC(=O)[C@@H]2C[C@@H](O)CN2C(=O)[C@H](c2cc(N3CCN(CCN4CCC(O[C@H]5C[C@H](Oc6cc(N7C8CCC7CN(c7cc(-c9ccccc9O)nnc7N)C8)ccn6)C5)CC4)CC3)no2)C(C)C)cn1 [compound 401, (2S,4R)-1-((2S)-2-(3-(4-(2-(4-((1r,3r)-3-((4-(3-(3-amino-6-(2-hydroxyphenyl)pyridazin-4-yl)-3,8-diazabicyclo[3.2.1]octan-8-yl)pyridin-2-yl)oxy)cyclobutoxy)piperidin-1-yl)ethyl)piperazin-1-yl)isoxazol-5-yl)-3-methylbutanoyl)-4-hydroxy-N-((S)-1-(6-(4-methylthiazol-5-yl)pyridin-3-yl)ethyl)pyrrolidine-2-carboxamide]
DC50 [3]: > 30 nM
